The compounds below were run against T1, human PPARα (Homo sapiens, UniProt Q07869) (assay: Human PPARα agonist assay (luciferase reporter in transfected CV-1 cells)). Settings: at 1 μM test compound alone; 100% = 1 μM stimulant (GW7647) only; CV-1 cells expressing human PPARα and RXRα.
T1 construct: 1.6 kb of DNA fragment including human PPARα gene was collected from the gel; expressed in transfected cells; host or cells: CV-1 cells, transient transfection with pCI-hPPARa, pCI-hRXRa and the reporter pGL3-PPRE3-TK
T1 sequence (Q07869 1-468): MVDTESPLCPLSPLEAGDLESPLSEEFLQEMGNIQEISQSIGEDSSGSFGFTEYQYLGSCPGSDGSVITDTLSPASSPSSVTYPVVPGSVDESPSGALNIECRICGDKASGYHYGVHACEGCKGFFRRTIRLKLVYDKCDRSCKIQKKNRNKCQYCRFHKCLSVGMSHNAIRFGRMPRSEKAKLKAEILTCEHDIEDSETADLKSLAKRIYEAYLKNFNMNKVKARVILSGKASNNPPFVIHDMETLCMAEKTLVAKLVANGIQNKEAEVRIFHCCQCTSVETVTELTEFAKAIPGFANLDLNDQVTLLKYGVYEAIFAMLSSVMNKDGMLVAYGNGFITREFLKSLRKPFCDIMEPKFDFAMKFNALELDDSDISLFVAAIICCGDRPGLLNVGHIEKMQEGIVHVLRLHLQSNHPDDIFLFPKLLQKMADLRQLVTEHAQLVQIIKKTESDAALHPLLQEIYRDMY
T1 sequence (P19793 1-462 partner): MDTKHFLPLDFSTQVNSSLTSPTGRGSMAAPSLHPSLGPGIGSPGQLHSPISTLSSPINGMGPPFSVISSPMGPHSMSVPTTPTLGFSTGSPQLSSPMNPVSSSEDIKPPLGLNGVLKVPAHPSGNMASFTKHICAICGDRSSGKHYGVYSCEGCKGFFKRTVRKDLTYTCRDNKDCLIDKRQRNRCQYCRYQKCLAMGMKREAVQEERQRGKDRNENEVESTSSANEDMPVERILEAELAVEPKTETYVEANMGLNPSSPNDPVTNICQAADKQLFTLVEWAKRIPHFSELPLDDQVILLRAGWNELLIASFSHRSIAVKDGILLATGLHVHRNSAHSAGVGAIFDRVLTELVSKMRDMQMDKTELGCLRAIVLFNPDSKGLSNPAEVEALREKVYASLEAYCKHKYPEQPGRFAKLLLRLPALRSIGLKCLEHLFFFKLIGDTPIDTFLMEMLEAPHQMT
Format: cell-based
Experimental: CV-1 cells (96 well plate), where human PPARα and RXRα has expressed in the transient transfection of reporter plasmid (see reference 6a) were washed once with PBS (100 μL/well), and then supplemented with 100 μL/well of DMEM medium including 10% of fetal bovine serum to which test compounds at final concentrations of 10 nM, 30 nM, 100 nM, 300 nM, 1 μM, and 3 μM, as well as GW7647 (not limited to GW7647 shown as an example, but may be any PPARα agonist) at a final concentration of 1 nM as a stimulant were added, and incubated in a 5% CO2 incubator at 37° C. for 24 hours. After removing the medium, the CV-1 cells were washed once with PBS (100 μL/well), and supplemented with 60 μL/well of 1× Passive Lysis Buffer (manufactured by Promega Corporation). The CV-1 cells were incubated at room temperature for 30 minutes, stirred, and then by using Dual-Luciferase Reporter Assay System (manufactured by Promega Corporation), luciferase activities of firefly and renilla were measured using 1420 ARVO Multilabel Counter (manufactured by Wallac Oy). Also, the same experiments as that described above were respectively carried out for the cases where only the above-mentioned stimulant (10 nM, 100 nM, 1 μM) were used, where only the above-mentioned test compounds were used, or where neither was used (nonsupplemented), and luciferase activities of firefly and renilla were measured. Values corrected by dividing the firefly luciferase activities by the renilla luciferase activities were calculated as specific activities and used for evaluations. […]
Also, human PPARα agonist activities of the test compounds were evaluated by using a percentage (activity) where the specific activity when nonsupplemented is regarded as 0% and the specific activity in case only 1 μM stimulant was added is regarded as 100%, from the specific activity in case only the test compound is used.
CV-1 cells were cultured in DMEM medium (manufactured by Invitrogen Corporation) including 10% fetal bovine serum (manufactured by Dainippon Pharmaceutical Co., Ltd.) in 225T-Flask (manufactured by Corning Costar). The cells were detached by 0.5 g/L trypsin-0.2 g/L EDTA (ethylene diamine tetra-acetic acid) (manufactured by Invitrogen Corporation), and then suspended in the DMEM medium including 10% fetal bovine serum to a cell concentration of 2×10^5 cells/mL. Thereafter, the cells were seeded into 96 well plate at 2×10^4 cells/0.1 mL/well, incubated in the CO2 incubator at 37° C. overnight, and then the plasmids prepared by the above-mentioned reference 2a, reference 3a, and reference 4a were transfected into cells by using a lipofectamine reagent (manufactured by Invitrogen Corporation) according to the attached manual.
Namely, after CV-1 cells were cultured overnight, the cells were washed with PBS (100 μL/well). Thereafter the cells were incubated for 5 hours at 37° C./5% CO2 in the MEM medium (manufactured by Invitrogen Corporation) including 430 ng/mL of human PPARα expression plasmid (pCI-hPPARa) prepared by the reference 2a, 430 ng/mL of human RXRα expression plasmid (pCI-hRXRa) prepared by the reference 3a, and 140 ng/mL of the reporter plasmid (pGL3-PPRE3-TK) prepared by the reference 4a, 10 ng/mL of phRL-TK vector (manufactured by Promega Corporation) and 2 μL/mL of lipofectamine.

Compound | Human PPARα agonist activities, Activity % (at 1 μM) [%]
COc1cc(Cn2c3ccccc3c3c(OC(C)C(=O)O)cccc32)ccc1OCc1nc(-c2ccccc2)oc1C (racemic) [Example 4, (±)-2-{9-[3-methoxy-4-((5-methyl-2-phenyl-oxazole-4-yl)methoxy)-benzyl]-9H-carbazole-4-yloxy}propionic acid] | 21
CCC(Oc1cccc2c1c1ccccc1n2Cc1ccc(OCc2nc(-c3ccccc3)oc2C)c(OC)c1)C(=O)O (racemic) [Example 5, (±)-2-{9-[3-methoxy-4-((5-methyl-2-phenyl-oxazole-4-yl)methoxy)-benzyl]-9H-carbazole-4-yloxy}butyric acid] | 27
COc1cc(Cn2c3ccccc3c3c(OCCC(C)C(=O)O)cccc32)ccc1OCc1nc(-c2ccccc2)oc1C (racemic) [Example 27, (±)-4-{9-[3-methoxy-4-((5-methyl-2-phenyl-oxazole-4-yl)methoxy)-benzyl]-9H-carbazole-4-yloxy}-2-methyl-butyric acid] | 23
COc1cc(Cn2c3ccccc3c3c(OC(C)C(=O)[O-])cccc32)ccc1OCc1nc(-c2ccccc2)oc1C.[Na+] (racemic) [Example 30] | 35
COc1cc(Cn2c3ccccc3c3c(OCCC(C)C(=O)[O-])cccc32)ccc1OCc1nc(-c2ccccc2)oc1C.[Na+] (racemic) [Example 37] | 20
COc1cc(Cn2c3ccccc3c3c(OC(C)(C)C(=O)O)cccc32)ccc1OCc1nc(-c2ccccc2)oc1C [Example 3, 2-{9-[3-methoxy-4-((5-methyl-2-phenyl-oxazole-4-yl)methoxy)-benzyl]-9H-carbazole-4-yloxy}-2-methyl-propionic acid] | 43
COc1cc(Cn2c3ccccc3c3c(OC(C)(C)C(=O)O)cccc32)ccc1OCc1nc(-c2ccco2)oc1C [Example 7, 2-{9-[4-((2-(furan-2-yl)-5-methyl-oxazole-4-yl)methoxy)-3-methoxy-benzyl]-9H-carbazole-4-yloxy-}2-methyl-propionic acid] | 39
COc1cc(Cn2c3ccccc3c3c(OC(C)(C)C(=O)O)cccc32)ccc1OCc1nc(-c2cccs2)oc1C [Example 8, 2-{9-[3-methoxy-4-((5-methyl-2-(thiophene-2-yl)-oxazole-4-yl)methoxy)-benzyl]-9H-carbazole-4-yloxy}-2-methyl-propionic acid] | 60
COc1cc(Cn2c3ccccc3c3c(OC(C)(C)C(=O)O)cccc32)ccc1OCc1nc(-c2ccncc2)oc1C [Example 9, 2-{9-[3-methoxy-4-((5-methyl-2-(pyridine-4-yl)-oxazole-4-yl)methoxy)-benzyl]-9H-carbazole-4-yloxy}-2-methyl-propionic acid] | 27
Cc1oc(-c2ccccc2)nc1COc1ccc(Cn2c3ccccc3c3c(OC(C)(C)C(=O)O)cccc32)cc1 [Example 13, 2-methyl-2-{9-[4-((5-methyl-2-phenyl-oxazole-4-yl)methoxy)-benzyl]-9H-carbazole-4-yloxy}propionic acid] | 37
COc1cc(Cn2c3ccccc3c3c(OC(C)(C)C(=O)O)cccc32)ccc1OCc1nc(-c2ccccc2)sc1C [Example 15, 2-{9-[3-methoxy-4-((5-methyl-2-phenyl-thiazole-4-yl)methoxy)-benzyl]-9H-carbazole-4-yloxy}-2-methyl-propionic acid] | 73
COc1cc(Cn2c3ccccc3c3c(OC(C)(C)C(=O)O)cccc32)ccc1OCc1sc(-c2ccccc2)nc1C [Example 16, 2-{9-[3-methoxy-4-((4-methyl-2-phenyl-thiazole-5-yl)methoxy)-benzyl]-9H-carbazole-4-yloxy}-2-methyl-propionic acid] | 56
COc1cc(Cn2c3ccccc3c3c(OCC(C)(C)C(=O)O)cccc32)ccc1OCc1nc(-c2ccccc2)oc1C [Example 22, 3-{9-[3-methoxy-4-((5-methyl-2-phenyl-oxazole-4-yl)methoxy)-benzyl]-9H-carbazole-4-yloxy}-2,2-dimethyl-propionic acid] | 40
COc1cc(Cn2c3ccccc3c3c(OCC(C)(C)C(=O)O)cccc32)ccc1OCc1nc(-c2ccco2)oc1C [Example 23, 3-{9-[4-((2-(furan-2-yl)-5-methyl-oxazole-4-yl)methoxy)-3-methoxy-benzyl]-9H-carbazole-4-yloxy}-2,2-dimethyl-propionic acid] | 69
COc1cc(Cn2c3ccccc3c3c(OCC(C)(C)C(=O)O)cccc32)ccc1OCc1nc(-c2cccs2)oc1C [Example 24, 3-{9-[3-methoxy-4-((5-methyl-2-(thiophene-2-yl)-oxazole-4-yl)methoxy)-benzyl]-9H-carbazole-4-yloxy}-2,2-dimethyl-propionic acid] | 64
COc1cc(Cn2c3ccccc3c3c(OCC(C)(C)C(=O)O)cccc32)ccc1OCc1nc(-c2ccncc2)oc1C [Example 25, 3-{9-[3-methoxy-4-((5-methyl-2-pyridine-4-yl-oxazole-4-yl)methoxy)-benzyl]-9H-carbazole-4-yloxy}-2,2-dimethyl-propionic acid] | 47
COc1cc(Cn2c3ccccc3c3c(OC(C)(C)C(=O)[O-])cccc32)ccc1OCc1nc(-c2ccccc2)oc1C.[Na+] [Example 28, sodium 2-{9-[3-methoxy-4-((5-methyl-2-phenyl-oxazole-4-yl)methoxy)-benzyl]-9H-carbazole-4-yloxy}-2-methyl-propionate] | 56
CCC(Oc1cccc2c1c1ccccc1n2Cc1ccc(OCc2nc(-c3ccccc3)oc2C)c(OC)c1)C(=O)[O-].[Na+] (centres unmarked) [Example 31] | 21
COc1cc(Cn2c3ccccc3c3c(OC(C)(C)C(=O)[O-])cccc32)ccc1OCc1nc(-c2cccs2)oc1C.[Na+] [Example 32] | 66
COc1cc(Cn2c3ccccc3c3c(OCC(C)(C)C(=O)[O-])cccc32)ccc1OCc1nc(-c2ccccc2)oc1C.[Na+] [Example 34] | 41
